According to paper PMC8097335, “A High‐Affinity Calmodulin‐Binding Site in the CyaA Toxin Translocation Domain is Essential for Invasion of Eukaryotic Cells” (Advanced Science, 2021):

Columns and labels:
[1] = Peptide titrations by SUVs followed by tryptophan fluorescence (solution-to-membrane partition); assay type: physicochemical; conditions: for Partition coefficient KX: POPC:POPG 8:2 SUVs, buffer A pH 7.4, 25 °C, tryptophan fluorescence ratio 330/370 nm; for Partition coefficient KX / ∆GKx for POPC POPG 8:2: S.D. within ± 10%; for Kd: converted from KX: [W]/KX = Kd, [W] = 55.5 M, read-out: Kd for POPC:POPG 8:2; for ∆GKx for POPC POPG 8:2: ∆GKx = -RT Ln Kx
Protocol: Lipid vesicles preparation
Small unilamellar vesicles (SUVs) and large unilamellar vesicles (LUVs) were prepared with POPC and POPG at a molar ratio of 8:2, at a lipid concentration of 10 mM in buffer A, as previously described 1. Briefly, SUVs and LUVs were prepared by reverse phase evaporation and filtered through polycarbonate filters of 1 μm and 0.2 μm of pore size diameter to obtain L UV. SUVs were further sonicated. The hydrodynamic diameters and mean net charge of the vesicles were measured by dynamic light scattering (DLS) and electrophoretic mobility, respectively, using a ZetaSizer NanoZS (Malvern Pananalytical , Orsay, France) 11.
Peptide titrations bySUV s and CaM followed by tryptophan fluorescence
Titrations were carried out with a FP-8200 Jasco spectrofluorimeter, equipped with a Pelt ie r - thermostated ETC-272T at 25°C. A bandwidth of 5 nm was used for both excitation and […]
(Hellma, France) with constant stirring. Fluorescence emission was recorded between 300 and […]
400 nm at a scan rate of 100 nm/min, with an excitation wavelength of 280 nm. Fluorescence emission spectra were corrected for SUV or CaM baselines . Fluorescence intensity ratio at 330 nm over 370 nm was use d to measure the partition coefficient (K X) of peptides between the solution andmembrane s 1, 12 and the affinity (K d) of peptides for CaM 13.
Determination of partition coefficient KX and dissociation constant Kd from […]
The partition coefficient KX is defined as the ratio of protein in the lipid (PL) and in buffer […]
(PW) pha se s 12, 14, expressed by: KKXX = [LL ]? , giving[PPWW ] [PPWW ]= [WW], where [W] the […]
concentration of water (55.5 M) and [L] the lipid concentration.
The fraction of peptide partitioned into the membrane, fPL, is equal to:
ffPPLL = [PPLL ][PPTT ]= [PPLL ][PPLL ]+[PPWW ]= 11+([PPWW ])= 11+( [WW]), where PT is the total concentration of peptides [PP TT ]= [PP LL ]+ [PP WW ]. […]
The equations a re fitted to the experimental data using the KaleidaGraph software, providing the KX and K d value s. The partition coefficient is related to the apparent dissociation constant:
KKXX × KKdd = [WW ] and to the free energy of partition ΔG Kx = -RTln(K X), where ΔG is the free energy in kcal/mol, R the gas constant (R = 1.98 x 10-3 kcal/mol/K) and T the temperature i n Kelvin. The free energy of peptide CaM interaction, ∆G Kd, is given by ΔG Kd = RTln(K d).
Sedimentation velocity-Analytical ultracentrifugation (SV -AUC) […]
ratio 1:1 (at 70 µM each). Samples were incubated 2h at 20°C in the ultracentrifuge and, then span at 42,000 rpm in an An-50 Ti rotor. […]

[2] = Membrane permeabilization of ANTS/DPX-loaded LUVs; conditions: for CP1/2, peptide concentration required to induce recovery of 50% of ANTS fluorescence intensity upon LUVs permeabilization: ANTS:DPX LUVs POPC:POPG 8:2, 0.45 mM lipid, buffer A pH 7.4, 25 °C, ex 390/em 515 nm, S.D. ± 5%; for Vesicle permeabilization (in words): ANTS:DPX LUVs POPC:POPG 8:2
Protocol: To monitor membrane permeabilization induced by peptides, ANTS (fluorophore probe) and
DPX (quencher) were encapsulated into large unilamellar vesicles (LUVs). The LUVs were
prepared at a concentration of 10 mM lipid at a POPC:PO PG molar ratio of 8:2 containing 20
mM ANTS and 60 mM DPX. The multilamellar vesicle suspension was extrudedthrough 0.4-
and 0.2 μm polycarbonate filters to produce LUVs. The unencapsulated ANT S a nd DPX we re
removed by gel filtration with a 5 mL Sephadex G -25 column (GE Healthcare Life Sciences ).
For permeabilization assays, LUVs were incubated in buffer A at 0.45 mM lipid
concentration at 25°C in a 101-QS cuvette (Hellma, France) and under constant stirring.
excitation wavelength was set at 390 nm and the emission of ANTS was continuously
measured at 515 nm. The maximum intensity of permeabilization, corresponding to the
maximum recovery of ANTS fluorescence, was measured after addition of 0.1% of Triton
X100. The concentration of membrane-bound peptide s required to induce the recovery of half
intensity of the ANTS fluorescence (C P1/2) was extracted from the permeabilization intensity
a s a function of peptide concentration 1.
LUVs were incubated in buffer B at a lipid concentration of 0.45 mM.
After a few seconds of permeabilization,
holo-Ca M wa s added t o t he solution at a peptide:Ca M molar ratio of 1:3. EDT A wa s
subsequently added in excess to chelate calcium and convert holo -CaM to apo -C a M .

[3] = Synchrotron radiation circular dichroism, alpha-helical content (Bestsel); assay type: physicochemical; conditions: 25 °C, far-UV SRCD; for alpha-helical content, TFE 20%: 20% TFE; for alpha-helical content, POPC:POPG 8:2: SUVs POPC:POPG 8:2 at 2 mM lipid; for alpha-helical content, Solution: buffer A
Protocol: Synchrotron Radiation Circular Dichroism
Synchrotron radiation circular dichroism (SRCD) was performed on the DISCO beamline of the synchrotron SOLEIL (Saint -Aubin, France) . Spectra were recorded at 25°C with an integration time of 1.2 s and a bandwidth of 1 nm with a resolution of 1 nm. A far-UV spectrum represents the average of four individual scans. QS cells (Hellma, France) with a pathlength of 20, 50, 100 or 200 μm (depending on final protein concentrations) were used to record spectra in the fa r -UV range (from 190 to 250 nm). CD spectra of peptides and proteins were measured in buffers A and B, 20% of trifluoroethanol (TFE), in the presence of SUVs (POPC :PO PG 8: 2) or Ca M. Secondary structure content was estimated using Bestsel software […]
Table S8: Estimation of the α -helical content of P454-derived peptides. The secondary structure content is estimated using the on-line Bestsel software 17 available at http://bestsel.elte.hu/index.php. […]
peptide in buffer A, in 20% TFE and in the presence of POPC POPG (molar ratio 8:2) at 2 mM lipid concentration. The far -UV CD spectra of several P454-derived peptides are shown […]

calmodulin (CaM) = biological target: T1, calmodulin (CaM) (Homo sapiens, UniProt P0DP23); experiment: Peptide titrations by CaM followed by tryptophan fluorescence, and ITC (Kd for CaM); assay type: binding; conditions: for Decrease of affinity for CaM relative to P454: from Table S3; for Kd: holo-CaM, from fluorescent titrations and ITC, 25 °C, average of at least three independent replicates; for Kd / ∆GKd for CaM: S.D. within ± 10%; for ∆GKd for CaM: ΔGKd = RTln(Kd)
T1 construct: made in house; host or cells: E. coli
Description: peptides by CaM and is expressed as follows: 𝐾𝐾 𝑑𝑑 = [𝑃𝑃 ]∗[𝐶𝐶𝐶𝐶𝐶𝐶 ][𝑃𝑃:𝐶𝐶𝐶𝐶𝐶𝐶] , given 𝐾𝐾𝑑𝑑[𝐶𝐶𝐶𝐶𝐶𝐶]= [𝑃𝑃 ][𝑃𝑃 :𝐶𝐶𝐶𝐶𝐶𝐶]and the fraction of complex, fP:CaM, i s: 𝑓𝑓𝑃𝑃:𝐶𝐶𝐶𝐶𝐶𝐶 = [𝑃𝑃 :𝐶𝐶𝐶𝐶𝐶𝐶 ][𝑃𝑃:𝐶𝐶𝐶𝐶𝐶𝐶]+[𝑃𝑃]= 11+ [𝑃𝑃 ]= 11+ 𝐾𝐾𝑑𝑑.

| Molecule | Partition coefficient KX [1] | Kd [1] [µM] | ∆GKx for POPC POPG 8:2 [1] [kcal/mol] | CP1/2, peptide concentration required to induce recovery of 50% of ANTS fluorescence intensity upon LUVs permeabilization [2] [µM] | alpha-helical content, TFE 20% [3] [%] | alpha-helical content, POPC:POPG 8:2 [3] [%] | alpha-helical content, Solution [3] [%] | Decrease of affinity for CaM relative to P454 (calmodulin (CaM)) | Kd (calmodulin (CaM)) [nM] | ∆GKd for CaM (calmodulin (CaM)) [kcal/mol] | Vesicle permeabilization (in words) [2] |
| --- | --- | --- | --- | --- | --- | --- | --- | --- | --- | --- | --- |
| CC[C@H](C)[C@H](NC(=O)[C@H](C)NC(=O)[C@H](Cc1c[nH]cn1)NC(=O)[C@@H](NC(=O)[C@H](CC(C)C)NC(=O)[C@H](CCCNC(=N)N)NC(=O)[C@H](CCC(N)=O)NC(=O)[C@H](C)NC(=O)[C@H](C)NC(=O)[C@H](C)NC(=O)[C@@H](NC(=O)[C@H](C)NC(=O)[C@H](CCC(N)=O)NC(=O)[C@H](C)NC(=O)CNC(=O)[C@H](CCC(N)=O)NC(=O)[C@H](CC(C)C)NC(=O)[C@H](C)NC(=O)[C@H](CCCNC(=N)N)NC(=O)[C@H](CCC(N)=O)NC(=O)CNC(=O)[C@@H](N)Cc1c[nH]c2ccccc12)C(C)C)C(C)C)C(=O)N[C@@H](C)C(=O)N[C@@H](CC(C)C)C(N)=O [P458] | 190 ×10^3 | 290 | -7.2 | 1.26 | 50 | 23 ± 2 | 10 ± 4 | – | – | – | – |
| Ac-ASAHAGQRAAQGAQAVAAAQRLVHAIALMTQ-NH2 [P454 W458A-L463A] | 22 ×10^3 | 2550 | -5.9 | 6.59 | 56 | 8 ± 2 | 7 ± 1 | 4 fold | 640 | -8.4 | – |
| Ac-ASAHAGQRALQGAQAVAAAQRLVHAAALMTQ-NH2 [P454 W458A-I479A] | 4.2 ×10^3 | 13200 | -4.9 | > 80 | 55 ± 1 | 7 ± 3 | 10 ± 3 | – | 2040 | -7.7 | do not permeabilize vesicles |
| Ac-ASAHWGQAALQGAQAVAAAQALVHAIALMTQ-NH2 [P454 R12A] | 280 ×10^3 | 200 | -7.4 | 0.14 | – | – | – | – | – | – | – |
| Ac-ASAHWGQKALQGAQAVAAAQKLVHAIALMTQ-NH2 [P454 R12K] | 220 ×10^3 | 260 | -7.3 | 0.09 | 45 ± 4 | 26 ± 1 | 13 ±2 | – | 50 | -9.9 | – |
| Ac-ASAHWGQQALQGAQAVAAAQQLVHAIALMTQ-NH2 [P454 R12Q] | 70 ×10^3 | 790 | -6.6 | 0.23 | 50 ± 2 | 23 ± 1 | 8 ± 4 | – | 2090 | -7.7 | – |
| Ac-ASAHWGQQALQGAQAVAAAQRLVHAIALMTQ-NH2 [P454 R1Q] | 190 ×10^3 | 290 | -7.2 | 0.22 | – | – | – | – | 100 | -9.5 | – |
| Ac-ASAHWGQRAAQGAQAVAAAQRAVSAAALMTQ-NH2 [P454 L463A-L475A-H477S-I479A] | 35 ×10^3 | 1580 | -6.2 | > 50 | 38 ± 2 | 5 ± 2 | 4 ± 1 | – | – | -6.8 | do not permeabilize vesicles |
| Ac-ASAHWGQRAAQGAQAVAAAQRLVHAIALMTQ-NH2 [P454 L463A] | 630 ×10^3 | 90 | -7.9 | 0.41 | 48 ± 3 | 19 ± 2 | 14 ± 2 | – | 200 | -9.1 | – |
| Ac-ASAHWGQRALQGAQAVAAAQQLVHAIALMTQ-NH2 [P454 R2Q] | 150 ×10^3 | 370 | -7 | 0.11 | – | – | – | – | 180 | -9.2 | – |
| Ac-ASAHWGQRALQGAQAVAAAQRAVHAIALMTQ-NH2 [P454 L475A] | 350 ×10^3 | 160 | -7.7 | 0.64 | 45 ± 1 | 15 ± 1 | 5 ± 2 | – | 120 | -9.4 | – |
| Ac-ASAHWGQRALQGAQAVAAAQRAVSAAALMTQ-NH2 [P454 L475A-H477S-I479A] | 18 ×10^3 | 3160 | -5.8 | 9.03 | 51 ± 4 | 6 ± 2 | 6 ± 2 | ≈ 20 fold | 1540 | -7.9 | – |
| Ac-ASAHWGQRALQGAQAVAAAQRLVHAAALMTQ-NH2 [P454 I479A] | 330 ×10^3 | 170 | -7.5 | 7.86 | 29 ± 1 | 12 ± 3 | 8 ± 2 | – | – | -7.9 | – |
| Ac-ASAHWGQRALQGAQAVAAAQRLVHAIAAMTQ-NH2 [P454 L481A] | 780 ×10^3 | 70 | -8 | 0.06 | 49 ± 1 | 44 ± 3 | 5 ± 1 | – | 90 | -9.6 | – |
